Target: T1, PDE4B (human recombinant) (Homo sapiens, UniProt Q07343)
T1 construct: made in house
Test: PDE4B inhibition, radioactive SPA and/or IMAP fluorescence polarisation (FP) assay
Assay type: biochemical
Conditions: for IC50: one reading or average of several (ca. 2-6) readings, SPA and/or FP assay, range given for a group of Examples, read-out: PDE4B pIC50 (±about 0.5) (converted); for PDE4B inhibitory activity compared with the comparable Example of opposite stereochemistry at the CR4R5 (benzylic) carbon atom: comparators: Examples 6, 7, 29, 26, 64, 126, 124, 170, 177
Excerpt: Human recombinant PDE4B, in particular the 2B splice variant thereof (HSPDE4B2B), is disclosed in WO 94/20079 and also M. M. McLaughlin et al., “A low Km, rolipram-sensitive, cAMP-specific phosphodiesterase from human brain: cloning and expression of cDNA, biochemical characterisation of recombinant protein, and tissue distribution of mRNA”, J. Biol. Chem., 1993, 268, 6470-6476. For example, in Example 1 of WO 94/20079, human recombinant PDE4B is described as being expressed in the PDE-deficient yeast Saccharomyces cerevisiae strain GL62, e.g. after induction by addition of 150 uM CuSO4, and 100,000×g supernatant fractions of yeast cell lysates are described for use in the harvesting of PDE4B enzyme.
The ability of compounds to inhibit catalytic activity at PDE4B or 4D (human recombinant), PDE3 (from bovine aorta), PDE5 (human recombinant) or PDE6 (from bovine retina) can optionally be determined by Scintillation Proximity Assay (SPA) in 96-well format.
Test compounds (as a solution in DMSO, preferably about 2 microlitre (ul) volume of DMSO solution) are preincubated at ambient temperature (room temperature, e.g. 19-23° C.) in Wallac Isoplates (code 1450-514) with PDE enzyme in 50 mM Tris-HCl buffer pH 7.5, 8.3 mM MgCl2, 1.7 mM EGTA, 0.05% (w/v) bovine serum albumin for 10-30 minutes (usually 30 minutes). The enzyme concentration is adjusted so that no more than 20% hydrolysis of the substrate defined below occurs in control wells without compound, during the incubation. For the PDE3, PDE4B and PDE4D assays, [5′,8-3H]Adenosine 3′,5′-cyclic phosphate (Amersham Pharmacia Biotech, code TRK.559; or Amersham Biosciences UK Ltd, Pollards Wood, Chalfont St Giles, Buckinghamshire HP8 4SP, UK) is added to give 0.05 uCi per well and about 10 nM final concentration. For the PDE5 and PDE6 assays, [8-^3H]Guanosine 3′,5′-cyclic phosphate (Amersham Pharmacia Biotech, code TRK.392) is added to give 0.05 uCi per well and about 36 nM final concentration. Plates containing assay mixture, preferably approx. 100 ul volume of assay mixture, are mixed on an orbital shaker for 5 minutes and incubated at ambient temperature for 1 hour. Phosphodiesterase SPA beads (Amersham Pharmacia Biotech, code RPNQ 0150) are added (about 1 mg per well) to terminate the assay. Plates are sealed and shaken and allowed to stand at ambient temperature for 35 minutes to 1 hour (preferably 35 minutes) to allow the beads to settle. Bound radioactive product is measured using a WALLAC TRILUX 1450 Microbeta scintillation counter. For inhibition curves, 10 concentrations (1.5 nM-30 uM) of each compound are assayed. Curves are analysed using ActivityBase and XLfit (ID Business Solutions Limited, 2 Ocean Court, Surrey Research Park, Guildford, Surrey GU2 7QB, United Kingdom) Results are expressed as pIC50 values.
The ability of compounds to inhibit catalytic activity at PDE4B (human recombinant) or PDE4D (human recombinant) can optionally be determined by IMAP Fluorescence Polarisation (FP) assay (IMAP Explorer kit, available from Molecular Devices Corporation, Sunnydale, Calif., USA; Molecular Devices code: R8062) in 384-well format.
The IMAP FP assay is able to measure PDE activity in an homogenous, non-radioactive assay format. The FP assay uses the ability of immobilised trivalent metal cations, coated onto nanoparticles (tiny beads), to bind the phosphate group of Fl-AMP that is produced on the hydrolysis of fluorescein-labelled (Fl) cyclic adenosine mono-phosphate (Fl-cAMP) to the non-cyclic Fl-AMP form. […] Binding of Fl-AMP product to the beads (coated with the immobilised trivalent cations) slows the rotation of the bound Fl-AMP and leads to an increase in the fluorescence polarisation ratio of parallel to perpendicular light. Inhibition of the PDE reduces/inhibits this signal increase. […]

T1 sequence (Q07343 1-564 isoform Q07343-2): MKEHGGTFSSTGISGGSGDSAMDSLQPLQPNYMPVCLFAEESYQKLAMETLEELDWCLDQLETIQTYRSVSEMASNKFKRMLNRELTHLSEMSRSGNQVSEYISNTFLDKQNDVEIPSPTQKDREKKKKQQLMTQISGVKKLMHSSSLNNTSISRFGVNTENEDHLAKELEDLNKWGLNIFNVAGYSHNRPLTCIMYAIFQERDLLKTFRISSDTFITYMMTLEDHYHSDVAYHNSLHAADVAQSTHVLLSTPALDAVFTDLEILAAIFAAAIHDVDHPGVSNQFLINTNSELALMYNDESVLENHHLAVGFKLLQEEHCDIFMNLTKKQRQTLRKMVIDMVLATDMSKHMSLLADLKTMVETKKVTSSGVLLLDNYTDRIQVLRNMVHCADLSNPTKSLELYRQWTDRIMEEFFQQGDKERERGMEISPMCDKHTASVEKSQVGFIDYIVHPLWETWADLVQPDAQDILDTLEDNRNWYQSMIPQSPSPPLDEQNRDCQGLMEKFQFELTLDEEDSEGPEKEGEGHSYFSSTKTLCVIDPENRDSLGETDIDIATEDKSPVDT

| SMILES | IC50 | PDE4B inhibitory activity compared with the comparable Example of opposite stereochemistry at the CR4R5 (benzylic) carbon atom |
| --- | --- | --- |
| CCn1ncc2c(NC3CCC(C(N)=O)CC3)c(C(=O)N[C@H](C)c3ccc(Br)cc3)cnc21 (mixture of isomers) [Example 351, 4-{[4-(aminocarbonyl)cyclohexyl]amino}-N-[(1R)-1-(4-bromophenyl)ethyl]-1-ethyl-1H-pyrazolo[3,4-b]pyridine-5-carboxamide] | 0.501 to 3.16 nM | – |
| CCn1ncc2c(N[C@H]3CC[C@@H](C(N)=O)CC3)c(C(=O)N[C@H](C)c3ccc(Br)cc3)cnc21 [Example 355, 4-{[cis-4-(aminocarbonyl)cyclohexyl]amino}-N-[(1R)-1-(4-bromophenyl)ethyl]-1-ethyl-1H-pyrazolo[3,4-b]pyridine-5-carboxamide] | 0.501 to 3.16 nM | – |
| CCn1ncc2c(NC3CCCC(O)C3)c(C(=O)NC(C)c3ccc(C)cc3)cnc21 (mixture of isomers) [Example 283, 1-ethyl-4-{[(1S,3R)-and/or (1R,3S)-3-hydroxycyclohexyl]amino}-N-[(1R)-1-(4-methylphenyl)ethyl]-1H-pyrazolo[3,4-b]pyridine-5-carboxamide] | 0.1 to 2 nM | – |
| CCC(NC(=O)c1cnc2c(cnn2CC)c1NC1CCC(=NO)CC1)c1ccc(C)cc1 (stereo not shown) [Example 252, 1-ethyl-4-{[4-(hydroxyimino)cyclohexyl]amino}-N-[1-(4-methylphenyl)propyl]-1H-pyrazolo[3,4-b]pyridine-5-carboxamide] | 0.1 to 2 nM | – |
| CC[C@@H](NC(=O)c1cnc2c(cnn2CC)c1N[C@H]1CC[C@H](C(N)=O)CC1)c1ccc(C)cc1C [Example 356, 4-{[trans-4-(aminocarbonyl)cyclohexyl]amino}-N-[(1R)-1-(2,4-dimethylphenyl)propyl]-1-ethyl-1H-pyrazolo[3,4-b]pyridine-5-carboxamide] | 39.8 to 158 nM | – |
| CCC(NC(=O)c1cnc2c(cnn2CC)c1NC1CCC(=O)CC1)c1ccc(C)cc1C (stereo not shown) [Example 210, N-[1-(2,4-dimethylphenyl)propyl]-1-ethyl-4-[(4-oxocyclohexyl)amino]-1H-pyrazolo[3,4-b]pyridine-5-carboxamide] | 0.1 to 2 nM | – |
| CCC(NC(=O)c1cnc2c(cnn2CC)c1NC1CCC(=O)CC1)c1ccc(C)cc1 (stereo not shown) [Example 221, 1-ethyl-N-[1-(4-methylphenyl)propyl]-4-[(4-oxocyclohexyl)amino]-1H-pyrazolo[3,4-b]pyridine-5-carboxamide] | 0.1 to 2 nM | – |
| CC[C@@H](NC(=O)c1cnc2c(cnn2CC)c1N[C@H]1CC[C@@H](C(N)=O)CC1)c1ccc(C)cc1C [Example 352, 4-{[cis-4-(aminocarbonyl)cyclohexyl]amino}-N-[(1R)-1-(2,4-dimethylphenyl)propyl]-1-ethyl-1H-pyrazolo[3,4-b]pyridine-5-carboxamide] | 0.501 to 3.16 nM | – |
| CCC(NC(=O)c1cnc2c(cnn2CC)c1NC1CCCC(O)C1)c1ccc(Cl)cc1 [Example 282, N-[1-(4-chlorophenyl)propyl]-1-ethyl-4-{[(1S,3R)-and/or (1R,3S)-3-hydroxycyclohexyl]amino}-1H-pyrazolo[3,4-b]pyridine-5-carboxamide] | 0.1 to 2 nM | – |
| CCC(NC(=O)c1cnc2c(cnn2CC)c1NC1CCC(=NO)CC1)c1ccc(C)c(C)c1 (stereo not shown) [Example 261, N-[1-(3,4-dimethylphenyl)propyl]-1-ethyl-4-{[4-(hydroxyimino)cyclohexyl]amino}-1H-pyrazolo[3,4-b]pyridine-5-carboxamide] | 0.1 to 2 nM | – |
| CCC(NC(=O)c1cnc2c(cnn2CC)c1NC1CCC(=O)CC1)c1ccc(Br)cc1 (stereo not shown) [Example 218, N-[1-(4-bromophenyl)propyl]-1-ethyl-4-[(4-oxocyclohexyl)amino]-1H-pyrazolo[3,4-b]pyridine-5-carboxamide] | 0.1 to 2 nM | – |

Next, values leading:

| IC50 | PDE4B inhibitory activity compared with the comparable Example of opposite stereochemistry at the CR4R5 (benzylic) carbon atom | SMILES |
| --- | --- | --- |
| 0.1 to 2 nM | – | CCn1ncc2c(NC3CCOCC3)c(C(=O)N[C@H](C)c3ccc(C)cc3)cnc21 [Example 73, 1-ethyl-N-[(1R)-1-(4-methylphenyl)ethyl]-4-(tetrahydro-2H-pyran-4-ylamino)-1H-pyrazolo[3,4-b]pyridine-5-carboxamide] |
| 0.794 to 5.01 nM | greater PDE4B inhibitory activity | CC[C@@H](NC(=O)c1cnc2c(cnn2CC)c1NC1CCOCC1)c1ccccc1 [Example 1, 1-ethyl-N-[(1R)-1-phenylpropyl]-4-(tetrahydro-2H-pyran-4-ylamino)-1H-pyrazolo[3,4-b]pyridine-5-carboxamide] |
| – | greater PDE4B inhibitory activity | CCn1ncc2c(NC3CCCCC3)c(C(=O)N[C@H](COC)c3ccccc3)cnc21 [Example 129, 4-(cyclohexylamino)-1-ethyl-N-[(1S)-2-(methyloxy)-1-phenylethyl]-1H-pyrazolo[3,4-b]pyridine-5-carboxamide] |
| 0.794 to 5.01 nM | greater PDE4B inhibitory activity | CCn1ncc2c(NC3CCOCC3)c(C(=O)N[C@H](COC)c3ccccc3)cnc21 [Example 24, 1-ethyl-N-[(1S)-2-(methyloxy)-1-phenylethyl]-4-(tetrahydro-2H-pyran-4-ylamino)-1H-pyrazolo[3,4-b]pyridine-5-carboxamide] |
| 0.794 to 5.01 nM | greater PDE4B inhibitory activity | CCn1ncc2c(NC3CCOCC3)c(C(=O)N[C@H](CO)c3ccccc3)cnc21 [Example 28, 1-ethyl-N-[(1S)-2-hydroxy-1-phenylethyl]-4-(tetrahydro-2H-pyran-4-ylamino)-1H-pyrazolo[3,4-b]pyridine-5-carboxamide] |
| – | greater PDE4B inhibitory activity | CCn1ncc2c(NC3CCC(=O)CC3)c(C(=O)N[C@H](C)c3ccc([N+](=O)[O-])cc3)cnc21 [Example 178, 1-ethyl-N-[(1R)-1-(4-nitrophenyl)ethyl]-4-[(4-oxocyclohexyl)amino]-1H-pyrazolo[3,4-b]pyridine-5-carboxamide] |
| 12.6 to 25.1 nM | – | CCn1ncc2c(NC3CCOCC3)c(C(=O)NC(C)(C)c3ccccc3)cnc21 [Example 2, 1-ethyl-N-(1-methyl-1-phenylethyl)-4-(tetrahydro-2H-pyran-4-ylamino)-1H-pyrazolo[3,4-b]pyridine-5-carboxamide] |
| 12.6 to 25.1 nM | – | CCn1ncc2c(NC3CCOCC3)c(C(=O)N[C@@H](C)c3cccc4ccccc34)cnc21 [Example 38, 1-ethyl-N-[(1S)-1-(1-naphthalenyl)ethyl]-4-(tetrahydro-2H-pyran-4-ylamino)-1H-pyrazolo[3,4-b]pyridine-5-carboxamide] |
| 0.1 to 2 nM | – | CCn1ncc2c(NC3CCCCC3)c(C(=O)N[C@H](C)c3ccc(C)cc3)cnc21 [Example 139, 4-(cyclohexylamino)-1-ethyl-N-[(1R)-1-(4-methylphenyl)ethyl]-1H-pyrazolo[3,4-b]pyridine-5-carboxamide] |
| 0.794 to 5.01 nM | – | CCn1ncc2c(NC3CCOCC3)c(C(=O)NC(CCO)c3ccccc3)cnc21 (stereo not shown) [Example 13, 1-ethyl-N-(3-hydroxy-1-phenylpropyl)-4-(tetrahydro-2H-pyran-4-ylamino)-1H-pyrazolo[3,4-b]pyridine-5-carboxamide] |
| 0.1 to 2 nM | – | CCC(NC(=O)c1cnc2c(cnn2CC)c1NC1CCOCC1)c1ccc(C)cc1C (single isomer, unassigned; enantiomer 2) [Example 304, N-[1-(2,4-dimethylphenyl)propyl]-1-ethyl-4-(tetrahydro-2H-pyran-4-ylamino)-1H-pyrazolo[3,4-b]pyridine-5-carboxamide (Enantiomer 2)] |

From patent US20080132536A1, “PYRAZOLO [3,4-B] PYRIDINE COMPOUNDS, AND THEIR USE AS PDE4 INHIBITORS” (Glaxo Group Limited, priority 2003, published 2008)
